Laboratory results from US9896487B2, “Amyloidosis-inhibiting polypeptides and their use” (UNIVERSITY OF WASHINGTON THROUGH ITS CENTER FOR …, priority 2013, dated 2018).
Entries after “also recorded” stand apart in the source; their conditions may differ. Where a SMILES comes first, the peptide text is derived from it. [ ]: non-standard residue; d: D form.

How the values were obtained:
TTR = target: T1, TTR (Homo sapiens, UniProt P02766); assay: Immobilized designs on agarose beads, binding of TTR from solution (dot blot); conditions: immobilized design; for binding of pre-incubated, toxic oligomer-containing TTR: TTR pre-incubated at low pH for 24 hrs
T1 construct: purchased Lee Biosolutions, St. Louis Mo; 496-11

Aβ = target: T2, Aβ (Homo sapiens, UniProt P05067); assay: Immobilized designs on agarose beads, binding of Aβ from solution (dot blot); conditions: immobilized design; for binding of pre-aggregated, toxic Aβ: Aβ pre-aggregated for 6 hrs
T2 construct: Aβ (1-42) (AMYD-002; CPC Scientific, Sunnyvale Calif.); purchased CPC Scientific, Sunnyvale Calif; AMYD-002

[1] = Solubility and solution behaviour of the designs; conditions: for solubility: aqueous solution-phase experiments
transthyretin (TTR) = target: T3, transthyretin (TTR) (Homo sapiens, UniProt P02766); assay: TTR fibrillization assay (Congo red binding); format: biochemical; conditions: for inhibition of the remaining TTR aggregation: peptide added to 24-hour pre-incubated, toxic TTR, versus aggregation in the absence of inhibitor
T3 construct: purchased Lee Biosolutions, St. Louis Mo; 496-11
Experimental: Aliqouts of transthyretin (TTR) (496-11; Lee Biosolutions, St. Louis Mo.) were made from a 1 mg/mL solution 20 mM ammonium carbonate, pH 8. Aliquots were lyophilized and stored at −18° C. Prior to use, TTR was dissolved to 80 μM (monomer) in acetate buffer (50 mM potassium acetate, 100 mM potassium chloride pH 4.5) and sonicated for 10 minutes. The stock solution was centrifuged before use. Peptide designs were added to stock TTR to a final TTR concentration of 40 μM (monomer) in acetate buffer (pH 4.5) in 500 μL microcentrifuge tubes, which were incubated at 37° C. Periodically, samples were collected from the TTR:peptide mixture by briefly centrifuging, and then carefully pipetting the solution up and down prior to withdrawing a 10 μL sample and diluting it in 190 μL of 10 μM Congo red in an individual well of a 96-well assay plate. Each measurement was performed in triplicate. Absorbance measurements were taken at 477 and 540 nm. Relative Congo red binding was determined using the method of Klunk et al. using the relationship: rCb=(Abs540/25,295)−(Abs477/46,306) (40). All datapoints were normalized to the value recorded for TTR alone pH 4.5 at 48 hrs.
(§1) The “control” designs were tested as general inhibitors against the Amyloid β 1-42 peptide (Aβ) (panel A), the islet amylin polypeptide (IAPP, or amylin, which is implicated in type 2 diabetes) (panel B), and transthyretin (TTR) (panel C) amyloidosis (FIG. 6). […] As described in Example 1, a Thioflavin T (ThT) fluorescence assay was used to monitor Aβ and IAPP aggregation. A Congo Red dye-binding assay was used to monitor TTR fibrillization. For inhibition against Aβ, peptides were co-incubated at 4-fold excess of Aβ at RT in neutral pH buffer containing ThT. Note that the results for α1 differ somewhat from what are included in Example 1 because the assay conditions were altered slightly to slow the process down to favor oligomerization of Aβ (rather than fibril elongation) by lowering the temperature to 25° C. […] For inhibition against IAPP, peptides were co-incubated at 8-fold excess of IAPP at 37° C. in neutral pH buffer containing 20 μM ThT. For inhibition against TTR, peptides were co-incubated at 10-fold excess of monomeric TTR.

Aβ (1-42) = target: T4, Aβ (1-42) (Homo sapiens, UniProt P05067); assay: Aβ fibrillization assay (Thioflavin T fluorescence); format: biochemical; conditions: for time of aggregation at which the inhibitory effect is exerted: 10:1 excess, 37° C., ThT; for inhibition of Aβ fibril formation: co-incubated in 10:1 excess (100 μM peptide, 10 μM Aβ), pH 7.4, 37° C., measured at 22 hours; for inhibition of aggregation of pre-aggregated, toxic Aβ: designs added to Aβ pre-aggregated for 6 hrs, versus aggregation in the absence of inhibitor
T4 construct: Aβ (1-42) (AMYD-002; CPC Scientific, Sunnyvale Calif.); purchased CPC Scientific, Sunnyvale Calif; AMYD-002
Experimental: Similarly, the designs were co-incubated (in 10:1 excess) with Aβ at pH 7.4 and followed fibril formation with ThT fluorescence changes upon binding at 37° C. (FIG. 2c). As observed for TTR, both α1 and α3 inhibited aggregation. Again α1 was more efficient, inhibiting approximately 87% of fibril formation compared with 66% for α3, when measured after the reaction stabilized at 22 hours. […] The 37° C. studies are reported here, though, for comparison with TTR, which aggregates very slowly at 25° C.
Aβ (1-42) (AMYD-002; CPC Scientific, Sunnyvale Calif.) was stored as 2 mg/mL stock in hexafluoroisopropanol (HFIP) at −18° C. Prior to use, the stock solution was thawed, an aliquot taken and the HFIP was removed under a gentle stream of air. A 1 mg/mL stock solution of Aβ was made in 5 mM NaOH and sonicated for 5-10 minutes. The stock was filtered through a 0.22 μm cellulose filter (Costar Spin-X; Corning Inc, NY). The concentration of stock Aβ was determined by first diluting the stock 1:50 in 5 mM NaOH then taking the absorbance at 220 nm (ε220=50,000 cm^−1 M^−1). Aliquots of the NaOH stock were placed in separate wells of a 96-well black-walled fluorescence plate (Nunc) and immediately diluted in PBS (11 mM phosphate) containing 20 μM Thioflavin T (ThT) to give 150 μL of 10 μM Aβ at pH 7.5. Peptide inhibitors were added directly to 10 μM Aβ samples from concentrated aqueous stocks. Covered plates were incubated at 37° C. and were periodically removed for fluorescence measurements. ThT fluorescence was measured at λex=450 nm and λem=480 nm using a Tecan Safire2 plate reader.
as §1

[2] = test system: Aβ, IAPP and TTR amyloidosis / toxic oligomer; assay: Inhibitory activity summary: inhibition of aggregation and/or binding of toxic oligomer; format: biochemical
Experimental: In addition, FIG. 5 contains ‘control’ designs aimed at reverse engineering the α1 design, which is presented in more detail in Example 3. […] These designs are both linear and cyclic peptides designed to be hairpins.
The “control” designs were tested as general inhibitors against the Amyloid β 1-42 peptide (Aβ) (panel A), the islet amylin polypeptide (IAPP, or amylin, which is implicated in type 2 diabetes) (panel B), and transthyretin (TTR) (panel C) amyloidosis (FIG. 6). […] As described in Example 1, a Thioflavin T (ThT) fluorescence assay was used to monitor Aβ and IAPP aggregation. A Congo Red dye-binding assay was used to monitor TTR fibrillization. For inhibition against Aβ, peptides were co-incubated at 4-fold excess of Aβ at RT in neutral pH buffer containing ThT. […] For inhibition against IAPP, peptides were co-incubated at 8-fold excess of IAPP at 37° C. in neutral pH buffer containing 20 μM ThT. For inhibition against TTR, peptides were co-incubated at 10-fold excess of monomeric TTR.
The data in FIG. 6 were normalized to ThT fluorescence of the negative (uninhibited) control (black squares). Inhibition traces are ordered vertically according to sequence identity to α1 (see Table 1). Sigmoidal fits to data are included. Controls are identical throughout a single panel, and traces for inhibition samples are colored while the uninhibited aggregation profiles are in black.

[3] = test system: human neuroblastoma cell line SH-SY5Y
Experimental: The toxicity of aggregates was tested against the human neuroblastoma cell line SH-SY5Y in an MTT cell viability assay. The human neuroblastoma cell line SH-SY5Y (CRL-226; American Type Culture Collection) was grown in 75 cm^2 flasks in 1:1 DMEM/F12 (CellGro) supplemented with 10% FBS and 50 units/mL penicillin/50 μg/mL streptomycin (complete media), and incubated at 37° C. in humidified 5% CO2 environment. Cells were routinely passaged when they reached 90% confluence by addition of trypsin (Gibco) and replated at a ratio of 1:10 in complete media. Cells were plated to a density of 25,000 cells/well in a 96-well plate (100 μL/well) and allowed to attach overnight. The cell assay was performed as described by Reixach et al. (41).

T4 sequence (P05067 672-713 limits assumed): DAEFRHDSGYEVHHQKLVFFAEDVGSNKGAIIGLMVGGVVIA
T2 sequence (P05067 672-713 limits assumed): as above

Compound	binding of pre-incubated, toxic oligomer-containing TTR (TTR)	binding of pre-aggregated, toxic Aβ (Aβ)	solubility [1]	inhibition of the remaining TTR aggregation (transthyretin (TTR))	inhibition at 800 µM (transthyretin (TTR); peptide co-incubated in excess 20:1 (800 μM) with 40 μM TTR monomer, pH 4.5, 37° C., after 48 hours, relative to TTR alone at low pH, read-out: percentage inhibition of TTR aggregation)	time of aggregation at which the inhibitory effect is exerted (Aβ (1-42))	inhibition of Aβ fibril formation (Aβ (1-42))	inhibition of aggregation of pre-aggregated, toxic Aβ (Aβ (1-42))	association state in solution ([1]; NMR conditions: very high sample concentrations, 50 mM potassium phosphate, 100 mM KCl pH 5.8)	percentage inhibition of TTR aggregation (transthyretin (TTR); peptide co-incubated in excess 20:1 (800 μM) with 40 μM TTR monomer, pH 4.5, 37° C., after 48 hours, relative to TTR alone at low pH)	inhibition of Aβ aggregation at 4-fold excess (Aβ (1-42); 4-fold excess of peptide, 25° C. (RT), neutral pH buffer with ThT, listed as α1)	binding of native, tetrameric TTR (TTR)	binding of pre-incubated, toxic oligomer-containing TTR (TTR; listed as α1)	binding of pre-aggregated, toxic Aβ (Aβ; listed as α1)	binding of fresh, monomeric Aβ (Aβ; fresh (0 h) Aβ)	Inhibits Aggregation and/or binds oligomer? [2]	viability of treated cells [3]
CSCC[C@H](NC(=O)[C@@H](CCCCN)NC(=O)[C@H](CS)NC(=O)[C@@H](CC(N)=O)NC(=O)[C@H](CCSC)NC(=O)[C@H](NC(=O)[C@H](Cc1c[nH]c2ccccc12)NC(=O)CNC(=O)[C@H](Cc1ccc(O)cc1)NC(=O)[C@H](Cc1ccc(O)cc1)NC(=O)[C@H](CCC(=O)O)NC(=O)[C@H](CC(N)=O)NC(=O)[C@H](CCSC)NC(=O)[C@@H](Cc1c[nH]c2ccccc12)NC(=O)[C@H](Cc1ccccc1)NC(=O)[C@@H](Cc1ccc(O)cc1)NC(=O)[C@H](CC(N)=O)NC(=O)[C@@H](CCSC)NC(=O)[C@H](CCC(=O)O)NC(=O)CNC(=O)[C@H](CCCNC(=N)N)NC(C)=O)[C@H](C)O)C(=O)NCC(=O)N[C@@H](CCCNC(=N)N)C(N)=O [α2] (Ac-RGE[dM]N[dY]F[dW]MNEYYGW[dT]M[dN]C[dK]MGR-NH2)	to a greater extent than the rc and β controls; also recorded: more strongly bound	bound pre-aggregated, toxic Aβ preferentially	sparingly soluble; also recorded: not soluble enough for NMR	–	–	–	–	–	–	–	–	–	–	–	–	–	–
CSCC[C@@H]1NC(=O)[C@@H]([C@H](C)O)NC(=O)[C@H](Cc2c[nH]c3ccccc23)NC(=O)[C@@H](C)NC(=O)[C@H](C)NC(=O)[C@H](C)NC(=O)[C@H](C)NC(=O)[C@H](CC(N)=O)NC(=O)[C@H]([C@@H](C)O)NC(=O)[C@@H](Cc2c[nH]c3ccccc23)NC(=O)[C@H](CO)NC(=O)[C@@H](CCCCN)NC(=O)[C@H](CCC(N)=O)NC(=O)[C@@H](CCC(N)=O)NC(=O)[C@H](CCCCN)NC(=O)[C@H](CC(N)=O)NC(=O)[C@H]2CCCN2C(=O)[C@H](CCC(=O)O)NC(=O)[C@@H](CCCCN)NC(=O)[C@H](CC(C)C)NC(=O)[C@@H](CCC(N)=O)NC1=O [α3] (cyclo([dQ]Q[dK]S[dW]TNAAA[dA]W[dT]M[dQ]L[dK]E[dP]NK))	to a greater extent than the rc and β controls; also recorded: more strongly bound	bound pre-aggregated, toxic Aβ preferentially	soluble	77%	56%	approximately 6 hrs	66%	96%	well-behaved monomers	–	–	–	–	–	–	–	–
Ac-RGEmNiSwMNEYSGWtMnLkMGR-NH2 [peptide #1]	–	–	–	81%	–	approximately 6 hrs	approximately 87%	97%	–	72%	essentially completely abolishes aggregation; also recorded: quenches Aβ aggregation	did not bind	to a greater extent than the rc and β controls; also recorded: more strongly bound	preferentially bound the pre-aggregated, toxic form of Aβ	did not bind	demonstrate activity and yes	–
Aβ: β-amyloid peptide 1-42 (AMYD-002; CPC Scientific)	–	–	–	–	–	–	–	–	–	–	–	–	–	–	–	–	less than 50%
